Test results from PubChem BioAssay (NCI).
Several values for one entry are separate records, joined by “and”; a condition that tells them apart may be missing. Equal entries are not always repeated.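 Where inhibition never reached the appropriate level, the endpoint shown equals the highest concentration tested. Otherwise, values were interpolated linearly from a five-concentration, 48-hour dose response in 96-well plates. GI50 = concentration required for 50% inhibition of growth. Definition used: TGI = concentration required for complete inhibition of growth.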

Columns and labels:
Assay in all cases: inhibition of tumour cell growth, NCI panel, 48 h
A549 NSCLC = tested on: A549 NSCLC
DU-145 prostate = tested on: DU-145 prostate
HS 578T breast = tested on: HS 578T breast
HT29 colon = tested on: HT29 colon
MCF7 breast = tested on: MCF7 breast
NCI-H23 lung = tested on: NCI-H23 lung
OVCAR-8 ovarian = tested on: OVCAR-8 ovarian
SR leukemia = tested on: SR leukemia
NCI-H460 lung = tested on: NCI-H460 lung
OVCAR-4 ovarian = tested on: OVCAR-4 ovarian

O=C1c2ccccc2-c2c1c1ccccc1c(=O)n2Cc1ccco1
TGI (A549 NSCLC): > 100 µM
TGI (DU-145 prostate): > 100 µM
TGI (HS 578T breast): > 100 µM
TGI (HT29 colon): > 100 µM
TGI (MCF7 breast): > 100 µM
TGI (NCI-H23 lung): > 100 µM
TGI (OVCAR-8 ovarian): > 100 µM
TGI (SR leukemia): > 100 µM

CC(Cn1c2c3ccccc3ccc2c2oc(=O)c3ccccc3c21)N(C)C (configuration not stated)
TGI (A549 NSCLC): > 100 µM
TGI (HT29 colon): > 100 µM
TGI (NCI-H23 lung): > 100 µM
TGI (NCI-H460 lung): > 100 µM
TGI (OVCAR-4 ovarian): > 100 µM
TGI (OVCAR-8 ovarian): > 100 µM
TGI (SR leukemia): > 100 µM

CN(C)/[N+]([O-])=N/Oc1cc(Nc2cccc(C(=O)O)c2)c([N+](=O)[O-])cc1[N+](=O)[O-]
GI50 (A549 NSCLC): > 100 µM
TGI (A549 NSCLC): > 100 µM
GI50 (DU-145 prostate): > 100 µM
TGI (DU-145 prostate): > 100 µM
GI50 (HS 578T breast): 34.7 µM
TGI (HS 578T breast): > 100 µM
GI50 (HT29 colon): > 100 µM
TGI (HT29 colon): > 100 µM
GI50 (MCF7 breast): 36.8 µM
TGI (MCF7 breast): > 100 µM
GI50 (NCI-H23 lung): 69.5 µM
TGI (NCI-H23 lung): > 100 µM
GI50 (NCI-H460 lung): > 100 µM
TGI (NCI-H460 lung): > 100 µM
GI50 (OVCAR-8 ovarian): > 100 µM
TGI (OVCAR-8 ovarian): > 100 µM
GI50 (SR leukemia): 43.9 µM
TGI (SR leukemia): > 100 µM

O=[N+]([O-])c1cnc(Sc2ccncn2)c([N+](=O)[O-])c1
GI50 (A549 NSCLC): 32.6 µM
TGI (A549 NSCLC): > 100 µM
GI50 (DU-145 prostate): 16.7 µM
TGI (DU-145 prostate): 30.5 µM
GI50 (HS 578T breast): 19.2 µM
TGI (HS 578T breast): 57.2 µM
GI50 (HT29 colon): 9.75 µM
TGI (HT29 colon): 31.8 µM
GI50 (MCF7 breast): 5.96 µM
TGI (MCF7 breast): 24.9 µM
GI50 (NCI-H23 lung): 14.3 µM
TGI (NCI-H23 lung): 37.7 µM
GI50 (NCI-H460 lung): 23 µM
TGI (NCI-H460 lung): 49.4 µM
GI50 (OVCAR-8 ovarian): 11.7 µM
TGI (OVCAR-8 ovarian): 25 µM
GI50 (SR leukemia): 2.67 µM
TGI (SR leukemia): > 100 µM

CCCN1C(=O)C/C(=C\C(C)=O)Nc2ccccc21
TGI (A549 NSCLC): > 100 µM
TGI (HT29 colon): > 100 µM
TGI (NCI-H23 lung): > 100 µM
TGI (NCI-H460 lung): > 100 µM
TGI (OVCAR-4 ovarian): > 100 µM
TGI (OVCAR-8 ovarian): > 100 µM
TGI (SR leukemia): > 100 µM

CCCc1c2c([nH]c(=O)c1C)C(=O)c1[nH]c(=O)c(C)c(CCC)c1C2=O
TGI (A549 NSCLC): 72.7 µM
TGI (HT29 colon): 18.7 µM
TGI (NCI-H23 lung): 57.4 µM
TGI (NCI-H460 lung): 77.3 µM
TGI (OVCAR-4 ovarian): 54.6 µM
TGI (OVCAR-8 ovarian): 17.8 µM
TGI (SR leukemia): 42.2 µM

COc1ccc2[nH]cc(CCNC(C)=O)c2c1
TGI (A549 NSCLC): > 100 µM
TGI (HT29 colon): > 100 µM
TGI (NCI-H23 lung): > 100 µM
TGI (NCI-H460 lung): > 100 µM
TGI (OVCAR-4 ovarian): > 100 µM
TGI (OVCAR-8 ovarian): > 100 µM

CC1=CC=NN2C(=O)[C@H](C)C2C1 (some centres not stated)
TGI (A549 NSCLC): > 100 µM
TGI (HT29 colon): > 100 µM
TGI (NCI-H23 lung): > 100 µM
TGI (NCI-H460 lung): > 100 µM
TGI (OVCAR-4 ovarian): > 100 µM
TGI (OVCAR-8 ovarian): > 100 µM
TGI (SR leukemia): > 100 µM

CSC(=S)c1ccc(C(=S)SC)cc1
TGI (A549 NSCLC): > 100 µM
TGI (HT29 colon): > 100 µM
TGI (NCI-H23 lung): > 100 µM
TGI (NCI-H460 lung): > 100 µM
TGI (OVCAR-4 ovarian): > 100 µM
TGI (OVCAR-8 ovarian): > 100 µM
TGI (SR leukemia): > 100 µM

C/C(=N\N=C(N)N)C(CN(CC(C)C)CC(C)C)C(=O)Nc1ccc(C)cc1C (configuration not stated)
TGI (A549 NSCLC): > 100 µM
TGI (HT29 colon): > 100 µM
TGI (NCI-H23 lung): > 100 µM
TGI (NCI-H460 lung): > 100 µM
TGI (OVCAR-4 ovarian): > 100 µM
TGI (OVCAR-8 ovarian): > 100 µM
TGI (SR leukemia): > 100 µM

C/C(CN1C(=O)c2ccccc2C1=O)=N\NS(=O)(=O)c1cccc([N+](=O)[O-])c1
TGI (A549 NSCLC): > 100 µM
TGI (HT29 colon): > 100 µM
TGI (NCI-H23 lung): > 100 µM
TGI (NCI-H460 lung): > 100 µM
TGI (OVCAR-4 ovarian): > 100 µM
TGI (OVCAR-8 ovarian): > 100 µM

CC(C)(C)NNC(=O)/C(=C/c1ccc(Oc2ccc(Cl)c(Cl)c2)cc1)NC(=O)c1ccccc1
TGI (A549 NSCLC): > 100 µM
TGI (HT29 colon): > 100 µM
TGI (NCI-H23 lung): > 100 µM
TGI (NCI-H460 lung): > 100 µM
TGI (OVCAR-4 ovarian): > 100 µM
TGI (OVCAR-8 ovarian): > 100 µM
TGI (SR leukemia): 35.9 µM

O=C1C2C(C(=O)N1O)N(Cc1ccccc1)C(=O)N2Cc1ccccc1 (configuration not stated)
TGI (A549 NSCLC): > 100 µM
TGI (HT29 colon): > 100 µM
TGI (NCI-H23 lung): > 100 µM
TGI (NCI-H460 lung): > 100 µM
TGI (OVCAR-4 ovarian): > 100 µM
TGI (OVCAR-8 ovarian): > 100 µM
TGI (SR leukemia): > 100 µM

Cc1ccc(S(=O)(=O)N/N=C(\CCN2CCCC2)CC(c2ccccc2)c2c(O)c3ccccc3oc2=O)cc1 (configuration not stated)
TGI (A549 NSCLC): > 100 µM
TGI (HT29 colon): > 100 µM
TGI (NCI-H23 lung): > 100 µM
TGI (NCI-H460 lung): > 100 µM
TGI (OVCAR-4 ovarian): > 100 µM
TGI (OVCAR-8 ovarian): > 100 µM
TGI (SR leukemia): > 100 µM

COc1cc(Nc2cnc3cc(C(F)(F)F)ccc3n2)cc(OC)c1OC
TGI (A549 NSCLC): > 100 µM
TGI (HT29 colon): > 100 µM
TGI (NCI-H23 lung): > 100 µM
TGI (NCI-H460 lung): > 100 µM
TGI (OVCAR-8 ovarian): > 100 µM
TGI (SR leukemia): > 100 µM

Cc1ccc(NC(=O)c2[nH]c(=S)nc(N)c2-c2ccccc2C)cc1C
TGI (A549 NSCLC): > 100 µM
TGI (HT29 colon): > 100 µM
TGI (NCI-H23 lung): > 100 µM
TGI (NCI-H460 lung): > 100 µM
TGI (OVCAR-8 ovarian): > 100 µM

CCCCCCCCCCCCN1C(C)=CS/C1=C\C=C\c1scc(C)[n+]1CCCCCCCCCCCC
GI50 (DU-145 prostate): 2.38 µM
TGI (DU-145 prostate): 10.5 µM
GI50 (HS 578T breast): 1.77 µM
TGI (HS 578T breast): 6.62 µM
GI50 (NCI-H23 lung): 0.999 µM
TGI (NCI-H23 lung): 4.99 µM
GI50 (NCI-H460 lung): 1.43 µM
TGI (NCI-H460 lung): 3.51 µM
GI50 (OVCAR-4 ovarian): 1.43 µM
TGI (OVCAR-4 ovarian): 13.2 µM
GI50 (SR leukemia): 1.12 µM
TGI (SR leukemia): > 100 µM

O=C(CCN1CCN(c2cccc(Cl)c2)CC1)N1CCc2c([nH]c3ccccc23)C1c1cccnc1 (configuration not stated)
TGI (A549 NSCLC): 19 µM
GI50 (HT29 colon): 4.13 µM
TGI (HT29 colon): 16.4 µM
GI50 (NCI-H23 lung): 11.2 µM
TGI (NCI-H23 lung): 28 µM
TGI (NCI-H460 lung): 16.9 µM
GI50 (OVCAR-4 ovarian): 4.23 µM
TGI (OVCAR-4 ovarian): 18.4 µM
TGI (OVCAR-8 ovarian): 21.7 µM
GI50 (SR leukemia): 5.06 µM
TGI (SR leukemia): 7.83 µM and 27 µM

Nc1ccccc1C#CC#Cc1ccccc1N
GI50 (A549 NSCLC): 13.8 µM
TGI (A549 NSCLC): 87.4 µM
GI50 (HT29 colon): 20.6 µM
TGI (HT29 colon): > 100 µM
GI50 (NCI-H23 lung): 4.04 µM
TGI (NCI-H23 lung): 22 µM
GI50 (NCI-H460 lung): 11.8 µM
TGI (NCI-H460 lung): 28.4 µM
GI50 (OVCAR-4 ovarian): 23.7 µM
TGI (OVCAR-4 ovarian): > 100 µM
GI50 (OVCAR-8 ovarian): 28.7 µM
TGI (OVCAR-8 ovarian): > 100 µM
TGI (SR leukemia): 69.8 µM

CC(C)C(C(=O)O)N(CC1(O)OCC(O)C(O)C1O)N=O (configuration not stated)
TGI (A549 NSCLC): > 100 µM
TGI (HT29 colon): > 100 µM
TGI (NCI-H23 lung): > 100 µM
TGI (NCI-H460 lung): > 100 µM
TGI (OVCAR-8 ovarian): > 100 µM

O=C(Cc1nc2ccccc2s1)C(=O)Nc1ccc(Cl)cc1
TGI (A549 NSCLC): > 100 µM
TGI (HT29 colon): > 100 µM
TGI (NCI-H23 lung): > 100 µM
TGI (NCI-H460 lung): > 100 µM
TGI (OVCAR-4 ovarian): > 100 µM
TGI (OVCAR-8 ovarian): > 100 µM

COc1ccc(CN2C(=O)/C(=C\c3cc(OC)c(OC)c(OC)c3)c3cc(OC)ccc32)cc1
GI50 (A549 NSCLC): 2.74 µM
TGI (A549 NSCLC): 8.62 µM
GI50 (DU-145 prostate): 2.96 µM
TGI (DU-145 prostate): 7.64 µM
GI50 (HS 578T breast): 2.4 µM
TGI (HS 578T breast): 8.72 µM
GI50 (HT29 colon): 2.19 µM
TGI (HT29 colon): 4.45 µM
GI50 (MCF7 breast): 2.91 µM
TGI (MCF7 breast): 11.8 µM
GI50 (NCI-H23 lung): 1.84 µM
TGI (NCI-H23 lung): 3.85 µM
GI50 (NCI-H460 lung): 1.91 µM
TGI (NCI-H460 lung): 3.83 µM
GI50 (OVCAR-4 ovarian): 3.5 µM
TGI (OVCAR-4 ovarian): 27.4 µM
GI50 (OVCAR-8 ovarian): 2.32 µM
TGI (OVCAR-8 ovarian): > 23.9 µM

COC(=O)c1c[nH]cc1CCc1c[nH]cc1C(=O)OC
TGI (A549 NSCLC): > 100 µM
TGI (HT29 colon): > 100 µM
TGI (NCI-H23 lung): > 100 µM
TGI (NCI-H460 lung): > 100 µM
TGI (OVCAR-4 ovarian): > 100 µM
TGI (OVCAR-8 ovarian): > 100 µM
TGI (SR leukemia): > 100 µM
